Here are results for 1 compound from patent publication US20150119391A1, “ANTI-TUMORAL COMPOSITION COMPRISING THE COMPOUND 1-(6--1,3-BENZOTHIAZOL-2-YL)-3-(2-MORPHOLIN-4-YLETHYL)UREA” (SANOFI, priority 2012, published 2015).

A short description of one data set: pKa (weak base). Type of data set: physicochemical.
Data set [1] in a line: stability to steam sterilization. In kind it is physicochemical. The procedure:
The concentrated pharmaceutical composition is prepared by usual methods for the preparation of aqueous liquid pharmaceutical composition. Generally, the process comprises a sterilization step, which is typically carried out by sterilizing filtration followed by aseptic filling.

The nature of a further data set: solubility in water. In kind it is physicochemical.
For data set [2], the system named is human Met-driven tumor cell lines. The experiment in a line: in vitro anti-proliferative activity. In kind it is cell-based. The settings on record: (nM), Met-driven tumor cell lines exclusively.
Data set [3] has as its system human Met-amplified models. Put plainly: cellular anti-tumor activity as a single agent. In kind it is cell-based.
A short description of data set [4]: Biopharmaceutics Classification System class / permeability characteristics. In kind it is physicochemical.

In brackets after ≈: the same amount, converted by molar mass. Read-outs that look alike come from different tables or passages of the source.

By pKa is commonly meant the pH at which an ionisable group is half protonated. Low readings indicate a group that gives up its proton readily, high ones a group that holds its proton tightly. One may read the solubility as how much of the substance goes into solution per volume. A higher solubility goes with much dissolved substance.

Turning to `O=C(NCCN1CCOCC1)Nc1nc2ccc(Sc3nnc4ccc(-c5ccc(F)cc5)nn34)cc2s1` [Compound A, 1-(6-{[6-(4-fluorophenyl)[1,2,4]triazolo[4,3-b]pyridazin-3-yl]sulfanyl}-1,3-benzothiazol-2-yl)-3-(2-morpholin-4-ylethyl)urea], the pKa in the data set “pKa (weak base)” came out at 6.4. For the same compound, in data set [1], the “chemical stability on steam sterilization” value is “chemical degradation”. Also, the solubility in the data set “solubility in water” is less than 0.1 µg/mL; in “solubility in water” (aqueous buffer, above pH 5), less than 0.1 µg/mL; in “solubility in water” (pH 1, simulated gastric fluid), roughly 90 µg/mL (≈ 163 µM); in the data set “solubility in water” (pH 3, aqueous buffer), roughly 20 µg/mL (≈ 36.3 µM). Also, the anti-proliferative activity result in data set [2] was “highly potent”. The cellular anti-tumor activity result in data set [3] is on record as “highly potent”. The permeability characteristics result in data set [4] was “poor”.
